From patent US20130230459A1, “RADIOLABELLED mGluR2 PET LIGANDS” (Janssen Pharmaceuticals, Inc., priority 2010, published 2013)

Key:
human mGluR2 receptor = target: T1, human mGluR2 receptor (Homo sapiens, UniProt Q14416); assay: [35S]GTPγS binding assay, mGluR2 positive allosteric modulation (PAM); type: biochemical; conditions: in presence of ~EC20 glutamate, membranes of CHO cells with human mGluR2; for EC50: read-out: GTPγS-hmGluR2 PAM pEC50 (converted)
T1 construct: expressed in transfected cells; host or cells: CHO cells (membranes)
T1 sequence (Q14416 19-872): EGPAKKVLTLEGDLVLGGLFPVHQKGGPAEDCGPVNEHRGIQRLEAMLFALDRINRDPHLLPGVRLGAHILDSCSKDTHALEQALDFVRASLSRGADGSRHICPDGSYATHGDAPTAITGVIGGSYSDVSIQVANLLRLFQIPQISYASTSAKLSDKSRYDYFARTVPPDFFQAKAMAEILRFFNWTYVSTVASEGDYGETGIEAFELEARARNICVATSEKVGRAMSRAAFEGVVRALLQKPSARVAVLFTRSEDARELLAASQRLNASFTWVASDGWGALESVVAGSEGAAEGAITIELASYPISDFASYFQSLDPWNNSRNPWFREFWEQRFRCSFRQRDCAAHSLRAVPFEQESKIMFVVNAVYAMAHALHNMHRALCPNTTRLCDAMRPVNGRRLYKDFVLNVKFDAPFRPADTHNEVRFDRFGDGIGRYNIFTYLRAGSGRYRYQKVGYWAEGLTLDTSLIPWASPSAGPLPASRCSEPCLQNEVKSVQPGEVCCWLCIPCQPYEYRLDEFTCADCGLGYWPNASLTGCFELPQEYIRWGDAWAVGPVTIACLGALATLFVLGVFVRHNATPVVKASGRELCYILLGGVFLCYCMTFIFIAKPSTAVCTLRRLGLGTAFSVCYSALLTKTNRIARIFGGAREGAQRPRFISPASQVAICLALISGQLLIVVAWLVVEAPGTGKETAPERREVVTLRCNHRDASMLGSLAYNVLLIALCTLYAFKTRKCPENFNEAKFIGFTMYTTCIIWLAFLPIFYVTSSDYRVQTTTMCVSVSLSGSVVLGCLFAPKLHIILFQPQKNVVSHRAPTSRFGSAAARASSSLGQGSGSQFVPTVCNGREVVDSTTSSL
Experimental: The [^35S]GTPγS binding assay is a functional membrane-based assay used to study G-protein coupled receptor (GPCR) function whereby incorporation of a non-hydrolysable form of GTP, [^35S]GTPγS (guanosine 5′-triphosphate, labelled with […] ^35S), is measured.
CHO-cells were cultured to pre-confluence and stimulated with 5 mM butyrate for 24 h. Cells were then collected by scraping in PBS and cell suspension was centrifuged (10 min at 4000 RPM in benchtop centrifuge). Supernatant was discarded and pellet gently resuspended in 50 mM Tris-HCl, pH 7.4 by mixing with a vortex and pipetting up and down. The suspension was centrifuged at 16,000 RPM (Sorvall RC-5C plus rotor SS-34) for 10 minutes and the supernatant discarded. The pellet was homogenized in 5 mM Tris-HCl, pH 7.4 using an ultra-turrax homogenizer and centrifuged again (18,000 RPM, 20 min, 4° C.). The final pellet was resuspended in 50 mM Tris-HCl, pH 7.4 and stored at −80° C. in appropriate aliquots before use. Protein concentration was determined by the Bradford method (Bio-Rad, USA) with bovine serum albumin as standard.
Measurement of mGluR2 positive allosteric modulatory activity of test compounds was performed as follows. Test compounds and glutamate were diluted in assay buffer containing 10 mM HEPES acid, 10 mM HEPES salt, pH 7.4, 100 mM NaCl, 3 mM MgCl2 and 10 μM GDP. Human mGlu2 receptor-containing membranes were thawed on ice and diluted in assay buffer supplemented with 14 μg/ml saponin. Membranes were pre-incubated with compound alone or together with a predefined (˜EC20) concentration of glutamate (PAM assay) for 30 min at 30° C. After addition of [^35S]GTPγS (f.c. 0.1 nM), assay mixtures were shaken briefly and further incubated to allow [^35S]GTPγS incorporation on activation (30 minutes, 30° C.). Final assay mixtures contained 7 μg of membrane protein in 10 mM HEPES acid, 10 mM HEPES salt, pH 7.4, 100 mM NaCl, 3 mM MgCl2,10 μM GDP and 10 μg/ml saponin. Total reaction volume was 200 μl. Reactions were terminated by rapid filtration through Unifilter-96 GF/B plates (Perkin Elmer, Mass., USA) using a 96-well filtermate universal harvester. Filters were washed 6 times with ice-cold 10 mM NaH2PO4/10 mM Na2HPO4, pH 7.4. Filters were then air-dried, and 40 μl of liquid scintillation cocktail (Microscint-O) was added to each well. Membrane-bound radioactivity was counted in a Microplate Scintillation and Luminescence Counter from Perkin Elmer.
The concentration-response curves of representative compounds of the present invention—obtained in the presence of EC20 of mGluR2 agonist glutamate to determine positive allosteric modulation (PAM)—were generated using the Lexis software interface (developed at J&J). Data were calculated as % of the control glutamate response, defined as the maximal response that is generated upon addition of glutamate alone. Sigmoid concentration-response curves plotting these percentages versus the log concentration of the test compound were analyzed using non-linear regression analysis. The concentration producing half-maximal effect is then calculated as EC50.
The pEC50 values below were calculated as the −log EC50, when the EC50 is expressed in M.

hmGluR3 = target: T2, hmGluR3 (Homo sapiens, UniProt Q14832); assay: Selectivity functional receptor assay, mGluR3; type: cell-based; conditions: hmGluR2 versus mGluR3
T2 construct: expressed in transfected cells
T2 sequence (Q14832 23-879): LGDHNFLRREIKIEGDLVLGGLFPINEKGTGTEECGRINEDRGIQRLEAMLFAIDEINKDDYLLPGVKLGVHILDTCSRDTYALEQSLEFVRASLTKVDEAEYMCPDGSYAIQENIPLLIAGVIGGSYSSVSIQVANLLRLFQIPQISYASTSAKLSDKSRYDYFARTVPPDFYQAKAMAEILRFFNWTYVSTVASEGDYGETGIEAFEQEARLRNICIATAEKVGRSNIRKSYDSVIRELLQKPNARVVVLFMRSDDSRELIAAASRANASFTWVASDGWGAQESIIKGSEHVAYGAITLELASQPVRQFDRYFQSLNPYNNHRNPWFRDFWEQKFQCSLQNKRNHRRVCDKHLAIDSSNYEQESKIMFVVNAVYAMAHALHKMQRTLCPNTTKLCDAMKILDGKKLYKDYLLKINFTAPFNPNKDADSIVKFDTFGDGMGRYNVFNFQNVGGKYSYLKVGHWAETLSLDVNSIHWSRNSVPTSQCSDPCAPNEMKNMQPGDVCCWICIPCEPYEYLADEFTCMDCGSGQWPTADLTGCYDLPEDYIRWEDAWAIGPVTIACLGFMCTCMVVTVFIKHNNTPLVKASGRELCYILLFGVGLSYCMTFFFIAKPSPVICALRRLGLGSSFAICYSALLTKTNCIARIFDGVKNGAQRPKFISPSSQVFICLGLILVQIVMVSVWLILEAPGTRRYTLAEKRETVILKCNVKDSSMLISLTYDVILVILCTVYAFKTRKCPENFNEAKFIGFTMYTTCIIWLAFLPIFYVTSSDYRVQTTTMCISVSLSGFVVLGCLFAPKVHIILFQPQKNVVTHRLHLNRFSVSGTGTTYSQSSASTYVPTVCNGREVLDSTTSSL
Experimental: (§1) Selectivity of the compounds for hmGluR2 versus hmGluR1, hmGluR3, hmGluR4, hmGluR5, rmGluR6, hmGluR7 and hmGluR8 was determined using functional receptor assays (either measuring changes in intracellular Ca2+ mobilization or G protein activation via [^35S]GTPγS) with cells overexpressing the receptor of interest.

hmGluR8 = target: T3, hmGluR8 (Homo sapiens, UniProt O00222); assay: Selectivity functional receptor assay, mGluR8; type: cell-based; conditions: hmGluR2 versus mGluR8
T3 construct: expressed in transfected cells
T3 sequence (O00222 34-908): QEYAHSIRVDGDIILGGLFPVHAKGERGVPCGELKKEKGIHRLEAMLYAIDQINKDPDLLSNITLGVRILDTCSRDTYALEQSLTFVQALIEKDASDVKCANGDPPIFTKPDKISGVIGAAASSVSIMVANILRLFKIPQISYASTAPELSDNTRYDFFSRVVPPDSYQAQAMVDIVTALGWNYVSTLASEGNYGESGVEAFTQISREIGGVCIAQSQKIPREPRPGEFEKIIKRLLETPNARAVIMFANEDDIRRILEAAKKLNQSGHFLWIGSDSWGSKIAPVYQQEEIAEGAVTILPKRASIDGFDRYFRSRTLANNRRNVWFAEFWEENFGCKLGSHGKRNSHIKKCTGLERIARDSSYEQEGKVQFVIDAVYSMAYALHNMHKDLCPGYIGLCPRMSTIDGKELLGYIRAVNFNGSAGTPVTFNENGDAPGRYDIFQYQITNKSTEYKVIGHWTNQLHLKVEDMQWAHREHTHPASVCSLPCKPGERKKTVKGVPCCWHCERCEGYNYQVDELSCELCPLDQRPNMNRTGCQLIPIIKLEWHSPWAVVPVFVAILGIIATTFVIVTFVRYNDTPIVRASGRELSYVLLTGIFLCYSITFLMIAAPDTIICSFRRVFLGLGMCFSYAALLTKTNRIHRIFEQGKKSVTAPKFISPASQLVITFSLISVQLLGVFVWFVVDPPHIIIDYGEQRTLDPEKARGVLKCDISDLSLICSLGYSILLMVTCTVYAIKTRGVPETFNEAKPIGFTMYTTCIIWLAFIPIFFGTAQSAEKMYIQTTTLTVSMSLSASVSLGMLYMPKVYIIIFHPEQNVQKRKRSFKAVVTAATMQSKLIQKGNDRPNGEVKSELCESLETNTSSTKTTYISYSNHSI
Experimental: as §1

[1] = tested on: hmGluR1, hmGluR3, hmGluR4, hmGluR5, rmGluR6, hmGluR7 and hmGluR8; assay: Selectivity for hmGluR2 in functional receptor assays (Ca2+ mobilization or [35S]GTPγS); type: cell-based, human; rat (mGluR6); conditions: hmGluR2 versus other mGluRs
Experimental: as §1

hmGluR7 = target: T4, hmGluR7 (Homo sapiens, UniProt Q14831); assay: Selectivity functional receptor assay, mGluR7; type: cell-based; conditions: hmGluR2 versus mGluR7
T4 construct: expressed in transfected cells
T4 sequence (Q14831 35-915): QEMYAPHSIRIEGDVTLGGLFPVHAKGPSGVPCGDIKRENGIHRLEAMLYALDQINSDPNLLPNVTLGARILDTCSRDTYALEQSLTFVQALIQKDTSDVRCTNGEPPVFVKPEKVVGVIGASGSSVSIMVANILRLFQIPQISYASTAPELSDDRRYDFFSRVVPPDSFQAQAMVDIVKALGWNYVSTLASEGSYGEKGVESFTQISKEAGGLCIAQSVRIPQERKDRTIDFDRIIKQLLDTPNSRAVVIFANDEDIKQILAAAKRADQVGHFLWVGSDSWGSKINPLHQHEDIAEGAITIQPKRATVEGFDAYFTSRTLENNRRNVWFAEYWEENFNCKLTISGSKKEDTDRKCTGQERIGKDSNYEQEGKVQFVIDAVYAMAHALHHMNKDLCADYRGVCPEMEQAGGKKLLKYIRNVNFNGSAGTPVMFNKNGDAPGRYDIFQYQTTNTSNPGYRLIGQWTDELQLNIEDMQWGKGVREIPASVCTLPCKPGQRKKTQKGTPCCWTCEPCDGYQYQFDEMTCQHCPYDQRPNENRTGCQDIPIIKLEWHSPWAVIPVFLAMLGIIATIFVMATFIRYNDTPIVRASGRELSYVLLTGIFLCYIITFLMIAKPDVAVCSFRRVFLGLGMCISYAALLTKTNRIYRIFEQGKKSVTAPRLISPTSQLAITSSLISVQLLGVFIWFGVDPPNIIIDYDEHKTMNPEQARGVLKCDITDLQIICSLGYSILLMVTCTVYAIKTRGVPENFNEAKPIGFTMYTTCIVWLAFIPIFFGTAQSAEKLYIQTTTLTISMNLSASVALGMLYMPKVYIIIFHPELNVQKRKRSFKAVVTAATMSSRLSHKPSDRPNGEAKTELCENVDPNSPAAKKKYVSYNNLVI
Experimental: as §1

mGluR2 = target: T5, mGluR2 (Rattus norvegicus, UniProt P31421); assay: MicroPET imaging: baseline, blocking and chase experiments; type: in vivo, Wistar rats; conditions: chase 0.3 mg/kg i.v. ~30 min after [^11C]B-2
T5 construct: from tissue; host or cells: brain of living male Wistar rats (in vivo microPET)
T5 sequence (P31421 19-872): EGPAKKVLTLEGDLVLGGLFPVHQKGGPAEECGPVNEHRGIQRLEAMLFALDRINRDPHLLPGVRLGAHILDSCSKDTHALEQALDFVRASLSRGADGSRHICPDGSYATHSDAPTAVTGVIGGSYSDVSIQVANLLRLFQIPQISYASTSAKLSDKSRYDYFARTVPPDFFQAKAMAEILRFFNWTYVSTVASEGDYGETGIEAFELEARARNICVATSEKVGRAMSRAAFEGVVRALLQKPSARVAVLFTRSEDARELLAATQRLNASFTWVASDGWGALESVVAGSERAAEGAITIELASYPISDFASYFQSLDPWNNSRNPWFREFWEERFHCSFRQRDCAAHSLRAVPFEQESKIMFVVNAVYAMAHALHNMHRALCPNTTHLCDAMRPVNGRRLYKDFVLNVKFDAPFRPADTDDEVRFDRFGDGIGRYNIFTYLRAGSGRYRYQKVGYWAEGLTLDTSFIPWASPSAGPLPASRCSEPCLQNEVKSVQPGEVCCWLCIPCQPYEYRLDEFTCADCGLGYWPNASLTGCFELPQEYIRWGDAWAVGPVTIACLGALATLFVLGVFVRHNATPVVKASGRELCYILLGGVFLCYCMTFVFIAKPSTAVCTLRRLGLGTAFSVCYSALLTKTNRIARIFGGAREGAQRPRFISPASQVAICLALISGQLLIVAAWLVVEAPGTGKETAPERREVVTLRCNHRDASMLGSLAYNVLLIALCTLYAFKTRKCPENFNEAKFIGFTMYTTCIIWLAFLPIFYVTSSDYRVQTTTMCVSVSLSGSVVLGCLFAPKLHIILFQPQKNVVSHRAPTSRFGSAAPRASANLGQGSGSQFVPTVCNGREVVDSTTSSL
Experimental: Imaging experiments were performed on a Focus™ 220 microPET scanner (Concorde Microsystems, Knoxyille, Tenn., USA) using healthy male Wistar rats. During all scan sessions, animals were kept under gas anesthesia (2.5% isoflurane in O2 at 1 L/min flow rate).
Dynamic scans of 90 min were acquired. After reconstruction of the images (filtered back projection), they were spatially normalized to an in-house created [^11C]raclopride template of the rat brain in Paxinos coordinates. Automated and symmetric volumes of interest (VOIs) were generated for different brain regions (striatum, cortex, cerebellum, hippocampus, hypothalamus, thalamus, substantia nigra, nucleus accumbens and lateral globus pallidus) from which time-activity curves (TAC) were constructed for each individual scan, using PMOD software (v 3.1, PMOD Technologies Ltd.). The radioactivity concentration in the different brain regions was expressed as SUV as a function of time p.i. of the radiotracer by normalization for body weight of the animal and injected dose.
Rats were injected with 30-60 MBq of high specific activity formulation of [^11C]B-4, [^11C]B-2, [^11C]B-7, or [^11C]B-10 via the tail vein under isoflurane anesthesia (2.5% in O2 at 1 L/min flow rate).
For pretreatment and displacement experiments, compound A, compound B or ritanserin were dissolved and administered in a vehicle containing 20% (2-hydroxypropyl)-β-cyclodextrine and two equivalents hydrochloric acid. The ritanserin solution was protected from light.
A self-blocking study was done by subcutaneous (s.c.) administration of the authentic reference material (for [^11C]B-4) at ˜30 min prior to the radiotracer injection. Displacement studies were performed by i.v. injection of compound B at dose 4, 1, 0.3 and 0.1 mg/kg, compound A at dose 1 mg/kg or ritanserin at dose 0.3 mg/kg. All chase compounds were injected ˜30 min after radiotracer injection. A wash-out period of at least four days was maintained between the different pretreatment and displacement studies.
[^11C]B-4 was evaluated in vivo in three rats which were scanned dynamically for 90 min using μPET. The first rat was used for a baseline scan. The second rat was pretreated with authentic reference material B-4 via s.c. administration (dose 10 mg/kg) at 30 min prior to tracer injection. The third rat was used in a chase experiment and was injected i.v. with authentic reference material B-4 (dose 3 mg/kg) 30 min after tracer injection.
Two rats were injected with high specific activity tracer ([^11C]B-4, [^11C]B-2, [^11C]B-7, or [^11C]B-10) and scanned dynamically for 90 min. The first rat was scanned baseline, the second rat was injected i.v. with compound B (dose 4 mg/kg) 30 min after tracer injection. Table 16 gives an overview of the maximum and minimum SUV values in the chase experiment for the four studied tracers.
A chase experiment was performed for [^11C]B-2 with different doses of compound B (4, 1, 0.3, 0.1 mg/kg). The chase compound was injected i.v. 30 min after tracer injection. Table 17 gives an overview of the average SUV values before and after injection of the chase for the total brain.

SMILES | GTPγS-hmGluR2 PAM pEC50 (human mGluR2 receptor) | melting point | Selectivity over mGluR3 (hmGluR3) | Selectivity over mGluR8 (hmGluR8) | Selectivity over mGluR1, mGluR3-mGluR8 [1] | EC50 (human mGluR2 receptor) | Selectivity over mGluR7 (hmGluR7) | effect of the chase compound on the binding of [^11C]B-2 (mGluR2)
COc1cc(F)cc(F)c1C1CCN(c2ccn3c(CC4CC4)nnc3c2Cl)CC1 [compound 7] | 8.16 | 162.2 °C | ≧500 fold | ≧500 fold | >1,000 fold, except for mGluR3 and mGluR8 | – | – | –
COc1c(F)cccc1C1CCN(c2ccn3c(CC4CC4)nnc3c2Cl)CC1 [compound 9] | 7.43 | 168.3 °C | – | – | >500 fold | – | – | –
COc1ccc(F)cc1C1CCN(c2ccn3c(CC(F)(F)F)nnc3c2Cl)CC1 [compound 1] | 7.98 | 259 °C | – | – | >1,000 fold | – | – | –
COc1ccccc1C1CCN(c2ccn3c(CC4CC4)nnc3c2Cl)CC1 [compound 11] | 7.7 | – | ~20 fold | – | >100, except for mGluR3 for which selectivity fold | – | – | –
COc1c(C2CCN(c3ccn4c(CC5CC5)nnc4c3Cl)CC2)ccc(F)c1F [compound 8] | – | 173.5 °C | ≥ 400 fold | – | > 1,000 fold | 26.3 nM | – | –
COc1cccc(F)c1C1CCN(c2ccn3c(CC4CC4)nnc3c2Cl)CC1 [compound 6] | 8.22 | – | > 300 fold | mGluR7 and mGluR8 for which selectivity >500 fold | > 1,000 fold | – | mGluR7 and mGluR8 for which selectivity >500 fold | –
Cc1nc2sccn2c(=O)c1CCN1CCC(=C(c2ccc(F)cc2)c2ccc(F)cc2)CC1 [Ritanserin, ritanserin, reference compound] | – | – | – | – | – | – | – | no significant effect
COc1c(F)ccc(F)c1C1CCN(c2ccn3c(CC4CC4)nnc3c2C(F)(F)F)CC1 [compound 3] | 8.39 | 180.7 °C | – | – | >1,000 fold | – | – | –
COc1cccc(F)c1C1CCN(c2ccn3c(CC(F)(F)F)nnc3c2Cl)CC1 [compound 5] | – | – | – | – | ≧1,000 fold | 3.89 nM | – | –
COc1c(F)ccc(F)c1C1CCN(c2ccn3c(CC4CC4)nnc3c2Cl)CC1 [compound 2] | – | 163.2 °C | – | – | >1,000 fold | 7.41 nM | – | –
COc1ccc(F)c(F)c1C1CCN(c2ccn3c(CC4CC4)nnc3c2Cl)CC1 [compound 10] | 8.03 | 208.5 °C | which selectivity ≧500 fold | which selectivity ≧500 fold | >1,000 fold, except for mGluR3 and mGluR8 for | – | – | –
COc1c(F)cccc1C1CCN(c2ccn3c(CC4CC4)nnc3c2C(F)(F)F)CC1 [compound 12] | – | 195.7 °C | ≥ 200 fold | – | ≥ 1,000 fold | 11.2 nM | – | –
COc1ccc(F)cc1C1CCN(c2ccn3c(CC4CC4)nnc3c2Cl)CC1 [compound 4] | – | > 300 °C | ≥ 40 fold | – | > 500 fold | 9.33 nM | – | –
